# Source: article PMC12036971 (2025)
# Molecular target: Akita16 HA (crystal construct) (Influenza A virus (A/black swan/Akita/1/2016(H5N6)), UniProt A0A1L7N0F8)
smiles,measurement,value
"CC(=O)N[C@H]1[C@H](O[C@H]2[C@@H](O)[C@@H](CO)O[C@@H](O[C@H]3[C@H](O)[C@@H](O)C(O)O[C@@H]3CO)[C@@H]2O)O[C@H](CO)[C@@H](O)[C@@H]1O[C@@H]1O[C@H](CO)[C@H](O)[C@H](O[C@]2(C(=O)O)C[C@H](O)[C@@H](NC(C)=O)[C@H]([C@H](O)[C@H](O)CO)O2)[C@H]1O (stereo partly shown) [LSTa, NeuAcα2-3Galβ1-3GlcNAcβ1-3Galβ1-4Glc]","X-ray crystal structure of complex, 2.71 Å","Akita16-WT HA structure with avian-type receptor analog, LSTa"
